In series [1] the target is T1, glucocorticoid receptor (GR) (Homo sapiens, UniProt P04150).
T1 construct: endogenous in cells; host or cells: 22Rv1
T1 sequence (P04150 1-777): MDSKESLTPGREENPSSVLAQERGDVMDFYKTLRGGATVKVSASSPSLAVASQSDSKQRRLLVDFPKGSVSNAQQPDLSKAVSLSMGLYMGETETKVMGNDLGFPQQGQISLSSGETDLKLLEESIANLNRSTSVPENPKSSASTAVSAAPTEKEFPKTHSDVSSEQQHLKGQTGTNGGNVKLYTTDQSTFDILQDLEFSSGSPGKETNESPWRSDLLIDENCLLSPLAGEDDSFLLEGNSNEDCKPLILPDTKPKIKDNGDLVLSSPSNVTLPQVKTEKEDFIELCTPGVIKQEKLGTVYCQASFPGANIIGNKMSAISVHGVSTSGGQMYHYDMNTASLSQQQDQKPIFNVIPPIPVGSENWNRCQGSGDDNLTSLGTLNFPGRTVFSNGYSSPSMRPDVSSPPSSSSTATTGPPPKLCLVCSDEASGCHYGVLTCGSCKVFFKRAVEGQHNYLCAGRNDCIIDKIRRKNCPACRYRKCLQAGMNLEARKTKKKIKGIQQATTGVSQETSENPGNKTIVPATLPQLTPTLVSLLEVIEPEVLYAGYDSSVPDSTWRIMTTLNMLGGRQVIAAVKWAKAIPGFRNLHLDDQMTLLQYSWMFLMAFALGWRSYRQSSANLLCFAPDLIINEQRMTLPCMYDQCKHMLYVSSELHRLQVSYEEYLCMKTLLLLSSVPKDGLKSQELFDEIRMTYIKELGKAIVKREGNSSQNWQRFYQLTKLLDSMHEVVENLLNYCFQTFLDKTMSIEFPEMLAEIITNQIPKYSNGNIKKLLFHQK
The series can be described thus: Immunoblot of GR in 22Rv1 cells. The series is classed as cell-based. As to conditions: 22Rv1, 24 hours, up to 10 μM. The procedure: Cell Culture. Human CaP cell lines, LNCaP, 22Rv1, VCaP, PC3, and DU145 are obtained from the American Type Culture Collection (ATCC) and maintained in the standard culture media: RPMI-1640 supplemented with 10% fetal bovine serum (FBS). LNCaP, 22Rv1, and VCaP are androgen-responsive cell lines, while PC3 and DU145 are not. To establish SAT resistant CaP cell lines, LNCaP, 22Rv1, and VCaP are treated continuously with 10-50 μM abiraterone, apalutamide, darolutamide, or enzalutamide. After 3-6 months, stable cell lines are established and designated as LNCaP-Abi^R, LNCaP-Apa^R, LNCaP-Daro^R, LNCaP-Enz^R, VCaP-Abi^R, VCaP-Apa^R, VCaP-Daro^R, VCaP-Enz^R, 22Rv1-Abi^R, 22Rv1-Apa^R, 22Rv1-Daro^R and 22Rv1-Enz^R. Unless otherwise specified, the standard culture media for these SAT-resistant cell lines included 10 μM of their respective SAT. For the proteasome inhibitor study, the inhibitors MG132 and Epoxomicin are used. The E3 ligase inhibitors Heclin, Nutlin 3a, Thalidomide, and VH298 are used. […] Mycoplasma contamination is also assessed using a PCR based detection system.
Immunoblot Analysis. […] Cell lysates are then centrifuged and protein in the supernatant is quantified. […] Following the incubation with appropriate secondary antibody, immunoblots are analyzed using SuperSignal West Femto Maximum Sensitivity Substrate (ThermoFisher).

The test system of series [2] is DU145. The series can be described thus: DU145 cell proliferation. Format: cell-based, human. As to conditions: AR-negative cell line; 1 μM. The method, then: The human prostate cancer cell line, 22Rv1 has been reported to express a high level of AR-V7. Thus, 22Rv1 was seeded at 50,000 cells/well on a 24-well plate in quadruplicates and treated with test compound in concentrations ranging up to 20 μM for four days. Standard culture media was RPMI-1640 supplemented with 10% fetal bovine serum. The test compound initially was dissolved in DMSO at 50 mM. This stock solution was then diluted as needed for the indicated concentrations. At the end of the four-day period, cells were harvested using 1% trypsin and counted using an automated cell counter.
Cell Culture. Human CaP cell lines, LNCaP, 22Rv1, VCaP, PC3, and DU145 are obtained from the American Type Culture Collection (ATCC) and maintained in the standard culture media: RPMI-1640 supplemented with 10% fetal bovine serum (FBS). LNCaP, 22Rv1, and VCaP are androgen-responsive cell lines, while PC3 and DU145 are not. To establish SAT resistant CaP cell lines, LNCaP, 22Rv1, and VCaP are treated continuously with 10-50 μM abiraterone, apalutamide, darolutamide, or enzalutamide. […] Mycoplasma contamination is also assessed using a PCR based detection system.

The test system of series [3] is 22Rv1. The series is described as follows: LDH assay for non-specific cytotoxicity in 22Rv1. Format: cell-based, human. As to conditions: 22Rv1, up to 20 μM, six days (0.01, 0.1, 1, 10 and 20 μM tested). The procedure: Apoptosis Assay. An apoptosis assay is carried out using the Thermo Fisher ApoDETECT Annexin V-FITC kit following the protocol recommended by the vendor. Briefly, after treatment with 1 μM of Test Compound for 3 to 24 hours, cells are fixed with 80% ethanol and washed with PBS three times. Then, fixed cells are incubated with Annexin V-FITC in PBS solution for 30 minutes at room temperature. After washing three times with PBS, cells are treated with 300 nM DAPI in PBS for 5 minutes at room temperature. Finally, after washing three times with PBS, mounting solution is added and the cells are visualized using immunofluorescence microscopy. Next, a TUNEL assay is performed using Promega DeadEnd Fluorometric TUNEL system. After treatment with Test Compound and fixation as described above in the Annexin-V experiment, 100 μl of equilibration buffer is incubated for 10 min. Then, 50 μl of TdT reaction mix is added and incubated for 60 min at 37° C. in a humidified chamber. Finally, stop solution is added and samples are mounted on slides using mounting medium. To assess non-specific cytotoxicity, an LDH assay kit is used.

The test system of series [4] is SAT-resistant CaP cell lines. The series can be described thus: Cell proliferation assay in twelve SAT-resistant CaP cell lines. Format: cell-based, human. As to conditions: 1 μM, 6 days; all lines except 22Rv1-EnzR. The procedure: Cell Culture. Human CaP cell lines, LNCaP, 22Rv1, VCaP, PC3, and DU145 are obtained from the American Type Culture Collection (ATCC) and maintained in the standard culture media: RPMI-1640 supplemented with 10% fetal bovine serum (FBS). LNCaP, 22Rv1, and VCaP are androgen-responsive cell lines, while PC3 and DU145 are not. To establish SAT resistant CaP cell lines, LNCaP, 22Rv1, and VCaP are treated continuously with 10-50 μM abiraterone, apalutamide, darolutamide, or enzalutamide. After 3-6 months, stable cell lines are established and designated as LNCaP-Abi^R, LNCaP-Apa^R, LNCaP-Daro^R, LNCaP-Enz^R, VCaP-Abi^R, VCaP-Apa^R, VCaP-Daro^R, VCaP-Enz^R, 22Rv1-Abi^R, 22Rv1-Apa^R, 22Rv1-Daro^R and 22Rv1-Enz^R. Unless otherwise specified, the standard culture media for these SAT-resistant cell lines included 10 μM of their respective SAT. For the proteasome inhibitor study, the inhibitors MG132 and Epoxomicin are used. The E3 ligase inhibitors Heclin, Nutlin 3a, Thalidomide, and VH298 are used. Cell lines obtained from ATCC are confirmed by checking their morphology using optical microscopy, establishing baselines for cell proliferation, verifying species of origin using isoenzymology, and characterizing the cell's DNA fingerprint using short tandem repeat (STR) profiling. Mycoplasma contamination is also assessed using a PCR based detection system. […]

Molecules are shown by their SMILES.

As to `Cc1ncsc1-c1ccc([C@H](C)NC(=O)[C@@H]2C[C@@H](O)CN2C(=O)[C@@H](NC(=O)CCCCNC(=O)COc2c(-c3csc(N4CCOCC4)n3)ccc(F)c2F)C(C)(C)C)cc1` [Example 16, (2S,4R)-1-((S)-2-(5-(2-(2,3-difluoro-6-(2-morpholinothiazol-4-yl)phenoxy)acetamido)pentanamido)-3,3-dimethylbutanoyl)-4-hydroxy-N-((S)-1-(4-(4-methylthiazol-5-yl)phenyl)ethyl)pyrrolidine-2-carboxamide], the “effect on expression level of glucocorticoid receptor (GR)” value in series [1] is reported as “no visible effect”. Moreover, the “effect on DU145 cells” value in series [2] is “not affected”. Also, in series [3], the “non-specific cytotoxic effect, lactate dehydrogenase (LDH) assay” value was “no non-specific cytotoxic effect”. Moreover, the “cell counts of SAT-resistant CaP cell lines, % of control” value in series [4] is 6-80 % of control.

(Values after patent US20230132823A1, “BI-FUNCTIONAL COMPOUNDS AND METHODS FOR TARGETED UBIQUITINATION OF ANDROGEN RECEPTOR” (MONTELINO THERAPEUTICS, INC., priority 2020, published 2023).)
